From patent US9921163B2, “Method and device for detecting analytes” (IMEC VZW, priority 2013, dated 2018)

Assay: SERS monitoring of boronic acid derivative binding to diol-modified SERS substrate (flow cell)
Source text: During the experiments, one type of gold nanostructured SERS substrates were applied. Hereto, a bare SiO2 substrate was cleaned prior to the deposition of polystyrene beads with a diameter of 100 nm (obtained from Thermo Fisher Scientific). Due to electrostatic forces, the nanoparticles form a closed-packed layer on the SiO2 substrate. Then, the substrate was carefully rinsed with H2O. Afterwards, a thin layer of Au (˜50 nm) was deposited onto the polystyrene-coated SiO2 substrate using sputter deposition. The as such obtained SERS substrates were cleaned with an aceton-H2O mixture and dried with a stream of N2. Additionally, the samples were cleaned using UV-O3 treatment for 15 min prior to the experiments.
The SERS substrates were immerged into a solution containing 1 mM thiolated glucose for 3 days at room temperature in the dark (i.e. 1-Thio-β-D-glucose sodium salt dihydrate obtained from Toronto Research Chemicals). […]
The SERS substrates functionalized with the thiolated glucose molecules were mounted into a home-made flow cell connected to a peristaltic pump system. […] The corresponding Raman signal was monitored using a Raman setup of LabRAM. […] FIG. 5 represents the SERS intensity monitored at 1075±1 cm^−1 using a time interval of 25 s. […] The response was also measured in real time as represented in FIG. 8. […]

OB(O)c1ccccc1 [PBA, Phenyl boronic acid]
SERS intensity at 1075±1 cm^−1 (PBA binding to immobilized thiolated glucose) (1 mM PBA in carbonate buffer, 785 nm, 0.5 mW, 25 s interval): an increase of the signal is obtained over time
SERS response of PBA interacting with immobilized thiolated glucose in presence of human serum albumin (human serum albumin 2000 mg/dl in carbonate mixed 1/1 with 1 mM PBA): a clear SERS response
